Laboratory results from ChEMBL document CHEMBL1146102, “Synthesis and structure-activity relationship of 3,4'-bispyridinylethylenes: discovery of a potent 3-isoquinolinylpyridine inhibitor of protein kinase B (PKB/Akt) for the treatment of cancer” (Bioorg Med Chem Lett, 2006).

How the values were obtained:
[1] = biological target: T1, RAC-alpha serine/threonine-protein kinase (Homo sapiens, UniProt P31749); experiment: Inhibition of Akt1 at 50 uM
[2] = biological target: Proto-oncogene tyrosine-protein kinase Src (Homo sapiens, UniProt P12931); experiment: Inhibition of SRC kinase at 1.0 mM ATP
[3] = biological target: MAP kinase-activated protein kinase 2 (Homo sapiens, UniProt P49137); experiment: Inhibition of MAPKAP2 at 10 uM ATP
[4] = biological target: RAC-gamma serine/threonine-protein kinase (Homo sapiens, UniProt Q9Y243); experiment: Inhibition of Akt3 at 10 uM ATP
[5] = biological target: T1, RAC-alpha serine/threonine-protein kinase; experiment: Activity against GSK3 phosphorylation in FL5.12-Akt1 cells; format: functional, cell-based
[6] = biological target: Vascular endothelial growth factor receptor 3 (Homo sapiens, UniProt P35916); experiment: Inhibition of FLt4 at 1.0 mM ATP
[7] = biological target: T2, Serine/threonine-protein kinase Chk1 (Homo sapiens, UniProt O14757); experiment: Inhibition of Chk1 at 10 uM ATP
T2 sequence (O14757 whole entry): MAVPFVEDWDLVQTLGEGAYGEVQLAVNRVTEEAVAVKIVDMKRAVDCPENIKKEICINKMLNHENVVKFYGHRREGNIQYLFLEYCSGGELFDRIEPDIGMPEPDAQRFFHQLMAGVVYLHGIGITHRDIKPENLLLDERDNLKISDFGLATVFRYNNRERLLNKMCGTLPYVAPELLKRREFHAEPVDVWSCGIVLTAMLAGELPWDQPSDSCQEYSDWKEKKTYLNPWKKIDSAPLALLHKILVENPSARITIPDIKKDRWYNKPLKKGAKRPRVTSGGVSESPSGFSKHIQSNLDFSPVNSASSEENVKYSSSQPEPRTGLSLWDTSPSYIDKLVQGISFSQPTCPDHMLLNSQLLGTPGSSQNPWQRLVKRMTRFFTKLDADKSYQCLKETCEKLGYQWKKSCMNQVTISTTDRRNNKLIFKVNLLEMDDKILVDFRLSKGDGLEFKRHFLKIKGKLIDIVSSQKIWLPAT

[8] = biological target: Protein kinase C gamma type (Homo sapiens, UniProt P05129); experiment: Inhibition of PKCgamma at 10 uM ATP
Casein kinase II = Casein kinase II (Homo sapiens, UniProt P19784+P67870+P68400); experiment: Inhibition of CK2 at 10 uM ATP; format: protein-complex assay
[9] = biological target: Cyclin-dependent kinase 1 (Homo sapiens, UniProt P06493); experiment: Inhibition of CDK1 at 10 uM ATP
[10] = biological target: Mitogen-activated protein kinase 1 (Homo sapiens, UniProt P28482); experiment: Inhibition of ERK2 at 10 uM ATP
[11] = biological target: Protein kinase C delta type (Homo sapiens, UniProt Q05655); experiment: Inhibition of PKCdelta at 10 uM ATP
Chain of Protein kinase C delta type (Q05655 whole entry): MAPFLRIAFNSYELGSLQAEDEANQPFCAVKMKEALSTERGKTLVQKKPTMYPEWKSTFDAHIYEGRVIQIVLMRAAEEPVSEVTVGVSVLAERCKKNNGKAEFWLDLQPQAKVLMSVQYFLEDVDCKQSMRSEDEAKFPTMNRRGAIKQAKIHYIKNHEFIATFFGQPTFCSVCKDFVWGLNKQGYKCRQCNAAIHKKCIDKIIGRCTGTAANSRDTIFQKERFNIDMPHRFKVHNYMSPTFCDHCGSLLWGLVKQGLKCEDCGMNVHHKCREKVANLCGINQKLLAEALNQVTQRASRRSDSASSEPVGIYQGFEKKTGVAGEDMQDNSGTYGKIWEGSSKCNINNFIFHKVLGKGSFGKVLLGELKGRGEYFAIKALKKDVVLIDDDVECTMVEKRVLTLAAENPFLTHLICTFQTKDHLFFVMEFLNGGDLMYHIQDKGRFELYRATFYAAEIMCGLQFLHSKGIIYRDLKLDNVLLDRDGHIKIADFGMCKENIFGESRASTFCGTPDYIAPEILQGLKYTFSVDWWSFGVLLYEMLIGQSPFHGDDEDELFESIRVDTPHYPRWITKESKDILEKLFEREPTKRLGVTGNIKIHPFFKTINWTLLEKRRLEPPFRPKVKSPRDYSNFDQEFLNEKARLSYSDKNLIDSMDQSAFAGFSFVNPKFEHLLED

T1 sequence (P31749 whole entry): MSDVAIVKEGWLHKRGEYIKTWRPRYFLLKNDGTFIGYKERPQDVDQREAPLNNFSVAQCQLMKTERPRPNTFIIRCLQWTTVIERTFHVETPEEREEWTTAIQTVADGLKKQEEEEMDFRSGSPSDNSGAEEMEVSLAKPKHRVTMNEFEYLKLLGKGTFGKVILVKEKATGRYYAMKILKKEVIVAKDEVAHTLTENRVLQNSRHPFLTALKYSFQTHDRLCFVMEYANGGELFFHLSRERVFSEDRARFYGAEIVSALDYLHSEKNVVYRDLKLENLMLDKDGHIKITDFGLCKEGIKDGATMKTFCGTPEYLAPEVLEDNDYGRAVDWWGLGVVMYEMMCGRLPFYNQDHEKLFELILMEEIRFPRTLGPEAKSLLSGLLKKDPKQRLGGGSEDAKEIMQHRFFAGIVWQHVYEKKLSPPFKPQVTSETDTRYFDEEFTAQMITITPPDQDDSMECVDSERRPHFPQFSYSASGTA
Chain of Casein kinase II (P67870 whole entry): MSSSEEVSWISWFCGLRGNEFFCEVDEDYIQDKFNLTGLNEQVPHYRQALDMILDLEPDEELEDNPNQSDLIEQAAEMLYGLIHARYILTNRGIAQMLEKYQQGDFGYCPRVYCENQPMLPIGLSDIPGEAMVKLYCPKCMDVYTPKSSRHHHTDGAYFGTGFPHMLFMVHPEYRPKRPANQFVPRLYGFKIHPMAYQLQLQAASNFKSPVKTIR
Chain of Casein kinase II (P68400 whole entry): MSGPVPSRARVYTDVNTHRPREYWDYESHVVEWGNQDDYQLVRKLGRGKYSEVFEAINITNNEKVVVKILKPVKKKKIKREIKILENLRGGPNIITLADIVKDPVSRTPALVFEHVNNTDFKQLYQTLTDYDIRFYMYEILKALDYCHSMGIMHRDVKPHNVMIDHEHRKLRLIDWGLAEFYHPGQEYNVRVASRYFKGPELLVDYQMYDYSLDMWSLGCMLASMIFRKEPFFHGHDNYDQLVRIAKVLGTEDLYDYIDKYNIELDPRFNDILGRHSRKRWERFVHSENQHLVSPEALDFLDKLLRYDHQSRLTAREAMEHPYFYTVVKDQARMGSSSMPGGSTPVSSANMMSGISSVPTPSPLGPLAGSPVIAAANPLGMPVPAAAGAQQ
Chain of Casein kinase II (P19784 whole entry): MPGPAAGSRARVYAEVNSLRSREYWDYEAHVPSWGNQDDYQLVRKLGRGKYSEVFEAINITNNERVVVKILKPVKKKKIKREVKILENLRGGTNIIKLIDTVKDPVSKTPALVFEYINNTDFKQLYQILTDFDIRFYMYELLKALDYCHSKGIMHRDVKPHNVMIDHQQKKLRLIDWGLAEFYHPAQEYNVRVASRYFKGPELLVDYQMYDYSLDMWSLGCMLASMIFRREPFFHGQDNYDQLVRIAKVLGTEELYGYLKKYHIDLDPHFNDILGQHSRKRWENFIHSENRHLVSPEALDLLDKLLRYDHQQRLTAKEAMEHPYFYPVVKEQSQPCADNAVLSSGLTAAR
Chain of MAP kinase-activated protein kinase 2 (P49137 whole entry): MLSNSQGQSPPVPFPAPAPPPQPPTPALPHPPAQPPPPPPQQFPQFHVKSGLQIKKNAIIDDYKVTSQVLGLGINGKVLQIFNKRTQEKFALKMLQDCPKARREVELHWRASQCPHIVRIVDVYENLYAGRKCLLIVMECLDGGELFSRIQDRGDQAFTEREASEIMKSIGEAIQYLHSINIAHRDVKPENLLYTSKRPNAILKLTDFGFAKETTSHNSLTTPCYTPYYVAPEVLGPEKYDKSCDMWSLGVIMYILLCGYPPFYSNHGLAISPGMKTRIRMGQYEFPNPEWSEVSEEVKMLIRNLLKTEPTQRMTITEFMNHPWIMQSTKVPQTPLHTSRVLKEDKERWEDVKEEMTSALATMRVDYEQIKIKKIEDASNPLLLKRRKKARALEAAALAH
Chain of Vascular endothelial growth factor receptor 3 (P35916 whole entry): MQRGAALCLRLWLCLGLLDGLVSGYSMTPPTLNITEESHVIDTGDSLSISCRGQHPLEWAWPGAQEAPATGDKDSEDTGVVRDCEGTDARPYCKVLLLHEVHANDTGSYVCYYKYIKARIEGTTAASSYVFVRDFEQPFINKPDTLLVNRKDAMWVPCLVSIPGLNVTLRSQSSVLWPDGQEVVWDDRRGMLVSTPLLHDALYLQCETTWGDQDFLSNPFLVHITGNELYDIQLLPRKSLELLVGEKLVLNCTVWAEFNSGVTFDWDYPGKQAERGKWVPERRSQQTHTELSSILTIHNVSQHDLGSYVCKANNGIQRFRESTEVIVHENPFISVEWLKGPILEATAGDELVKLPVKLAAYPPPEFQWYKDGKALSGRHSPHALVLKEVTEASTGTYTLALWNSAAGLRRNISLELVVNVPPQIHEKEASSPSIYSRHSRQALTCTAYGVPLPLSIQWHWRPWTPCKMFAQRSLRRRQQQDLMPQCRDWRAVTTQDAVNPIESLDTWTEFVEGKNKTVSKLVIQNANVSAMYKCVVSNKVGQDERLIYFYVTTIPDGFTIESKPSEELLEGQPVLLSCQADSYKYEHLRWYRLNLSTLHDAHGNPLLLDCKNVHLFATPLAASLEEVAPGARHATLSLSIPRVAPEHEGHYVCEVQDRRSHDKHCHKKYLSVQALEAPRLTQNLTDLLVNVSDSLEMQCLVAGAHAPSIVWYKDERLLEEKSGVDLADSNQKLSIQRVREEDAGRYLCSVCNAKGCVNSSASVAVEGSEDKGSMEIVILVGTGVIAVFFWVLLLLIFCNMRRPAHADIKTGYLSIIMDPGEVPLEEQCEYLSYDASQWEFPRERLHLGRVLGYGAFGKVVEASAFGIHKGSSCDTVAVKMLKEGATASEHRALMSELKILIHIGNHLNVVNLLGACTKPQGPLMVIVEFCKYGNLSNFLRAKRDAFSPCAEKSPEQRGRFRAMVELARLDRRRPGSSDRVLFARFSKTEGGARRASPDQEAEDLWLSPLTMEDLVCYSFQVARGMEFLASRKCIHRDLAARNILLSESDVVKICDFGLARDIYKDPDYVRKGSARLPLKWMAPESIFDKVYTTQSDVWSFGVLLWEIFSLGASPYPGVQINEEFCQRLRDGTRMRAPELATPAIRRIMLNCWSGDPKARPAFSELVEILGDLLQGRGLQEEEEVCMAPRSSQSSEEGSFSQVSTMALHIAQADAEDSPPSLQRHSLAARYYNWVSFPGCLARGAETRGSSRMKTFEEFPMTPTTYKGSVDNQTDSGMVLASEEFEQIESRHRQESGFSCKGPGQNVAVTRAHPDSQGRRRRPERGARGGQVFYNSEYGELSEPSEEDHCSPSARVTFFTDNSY
Chain of Mitogen-activated protein kinase 1 (P28482 whole entry): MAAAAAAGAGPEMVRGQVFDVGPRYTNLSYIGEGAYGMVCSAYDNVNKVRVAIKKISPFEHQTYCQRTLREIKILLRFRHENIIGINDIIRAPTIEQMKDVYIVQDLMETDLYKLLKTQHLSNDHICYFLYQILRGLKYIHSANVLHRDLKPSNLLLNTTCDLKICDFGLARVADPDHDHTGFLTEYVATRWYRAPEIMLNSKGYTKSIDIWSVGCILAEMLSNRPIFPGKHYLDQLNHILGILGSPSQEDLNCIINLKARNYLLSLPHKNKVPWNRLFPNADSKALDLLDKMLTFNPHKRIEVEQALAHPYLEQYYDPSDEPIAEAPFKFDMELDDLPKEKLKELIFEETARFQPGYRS
Chain of Proto-oncogene tyrosine-protein kinase Src (P12931 2-536 limits assumed): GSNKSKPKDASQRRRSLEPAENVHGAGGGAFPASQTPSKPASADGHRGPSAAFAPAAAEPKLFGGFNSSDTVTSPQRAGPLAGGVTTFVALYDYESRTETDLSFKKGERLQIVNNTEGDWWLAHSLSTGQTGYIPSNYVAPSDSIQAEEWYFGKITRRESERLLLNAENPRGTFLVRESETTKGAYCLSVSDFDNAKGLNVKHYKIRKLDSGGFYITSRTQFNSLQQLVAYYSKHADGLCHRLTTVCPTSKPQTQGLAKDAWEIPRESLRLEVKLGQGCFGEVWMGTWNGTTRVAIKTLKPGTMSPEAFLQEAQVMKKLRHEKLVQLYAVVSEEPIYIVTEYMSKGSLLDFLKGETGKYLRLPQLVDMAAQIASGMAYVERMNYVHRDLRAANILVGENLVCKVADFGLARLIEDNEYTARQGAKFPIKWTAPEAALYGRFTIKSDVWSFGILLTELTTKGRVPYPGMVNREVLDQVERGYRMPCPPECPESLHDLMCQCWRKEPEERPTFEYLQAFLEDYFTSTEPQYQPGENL

## CC(=O)NCc1ccc(-c2cncc(OC[C@@H](N)Cc3c[nH]c4ccccc34)c2)cc1
[1]
  inhibition: 3%

## N[C@H](COc1cncc(-c2cccc(S(N)(=O)=O)c2)c1)Cc1c[nH]c2ccccc12
[1]
  inhibition: 0%

## N=C(N)c1ccc(-c2cncc(OC[C@@H](N)Cc3c[nH]c4ccccc34)c2)cc1
[1]
  inhibition: 41%

## N[C@H](COc1cncc(-c2ccc3cnccc3c2)c1)Cc1c[nH]c2ccccc12
[2]
  IC50: > 50 µM
[3]
  IC50: > 50 µM
[4]
  IC50: 35 nM
[5]
  EC50: 1500 nM
[6]
  IC50: > 50 µM
[7]
  IC50: 4.2 µM
[8]
  IC50: 270 nM
Casein kinase II
  IC50: 11.8 µM
[9]
  IC50: 100 nM
[10]
  IC50: 910 nM
[11]
  IC50: 6.1 µM

## N[C@H](COc1cncc(NCc2ccncc2)c1)Cc1ccccc1
[1]
  inhibition: 26%

## N[C@H](COc1cncc(-c2ccc(S(N)(=O)=O)cc2)c1)Cc1c[nH]c2ccccc12
[1]
  inhibition: 12%

## N[C@H](COc1cncc(NCc2cccnc2)c1)Cc1ccccc1
[1]
  inhibition: 41%

## N[C@H](COc1cncc(-c2ccc([N+](=O)[O-])cc2)c1)Cc1c[nH]c2ccccc12
[1]
  inhibition: 13%

## N[C@H](COc1cncc(-c2ccccc2-c2ccncc2)c1)Cc1c[nH]c2ccccc12
[1]
  inhibition: 10%

## N[C@H](COc1cncc(NC(=O)c2cccnc2)c1)Cc1ccccc1
[1]
  inhibition: 26%

## N=C(NO)c1ccc(-c2cncc(OC[C@@H](N)Cc3c[nH]c4ccccc34)c2)cc1
[1]
  inhibition: 48%
